Measurements reported in patent US20090018019A1, “INCREASING PATHOGEN DEFENCE IN PLANTS” (priority 2005, published 2009).

Legend:
Experiment in all cases: DNA chip expression analysis of barley leaves after soil treatment
Assay type in all cases: in vivo
Conditions in all cases: 10 mg per plant to soil
[1] = system: Contig2788_x_at THAUMATIN-LIKE PROTEIN TLP7
Protocol: (§1) Barley seeds (of the Baroness variety) were sown in pots containing soil about 2 cm deep (1250 g of sandy loam/per pot; the soil moisture content was adjusted to 70% of the maximum water-holding capacity) and cultivated in a climatized chamber under specified light, moisture and temperature conditions (15 h white light, 70% atmospheric humidity, 23-19° C. day/night).
(§2) 14 days after the emergence of the barley plants 10 mg of imidacloprid per plant, dissolved in 100 ml water, were applied by means of a pipette to the soil around the base of the shoot. The same volume of water without any active compound was applied to the control pots. After the soil treatment the plants were no longer watered. At various times after application (0.25; 1; 6; 8; 11; 13; 15; 16 and 17 days) the leaves were harvested, quick-frozen in liquid nitrogen and stored at −80° C. until further treatment.
(§3) The labelled RNA probes for the DNA chip hybridization were produced according to the protocols (Expression Analysis, Technical Manual) of the Affymetrix company (Affymetrix Inc., 3380 Central Expressway, Santa Clara, Calif., USA). Whole RNA was first of all isolated from in each case 500 mg of the harvested leaves. 10 μg portions of whole RNA were used for the first and second strand cDNA synthesis. The cDNA was amplified with T7 polymerase and simultaneously labelled with biotin-UTP. 20 μg portions of this biotinylated cDNA were used for the hybridization of the barley genome array (Barleyl Gene Chip, Item no: 511012) from Affymetrix. This DNA microarray contains DNA sequences of 22840 genes composed of a total of 400000 EST (Expressed Sequence Tag) sequences. Then the DNA microarrays were washed in the Affymetrix Fluidics Station, stained with streptavidin/phycoerythrin (Molecular Probes, P/N S-866) and scanned with the Affymetrix Gene Chip Scanner 3000. The fluorescence data obtained were analyzed with the Microarray Suite 5 software from Affymetrix and the Expressionist Pro software from the GeneData company. After a quality check, all of the DNA chip analyses were stored in a database. Since the Affymetrix Gene Chip System is based on measuring the absolute expression values of the genes contained in the chip, the expression values of the biological replicates of treated and non-treated plants were averaged after normalization (median calculation). With the aid of the statistical ANOVA method, those genes were identified whose expression was increased in the plants treated with imidacloprid but remained relatively constant in the untreated controls. The assembly of gene groups from specific metabolic pathways, signal transduction chains or functions was carried out by a keyword search through the gene annotations supplied by Affymetrix and by linking the genes to their corresponding Gene Ontology Annotations (Gene Ontology Consortium).

[2] = system: Contig2550_x_at PATHOGENESIS-RELATED PROTEIN 4
Protocol: as §1, §2, §3

[3] = system: Contig2214_s_at PATHOGENESIS RELATED PROTEIN (HV-1A)
Protocol: as §1, §2, §3

[4] = system: Contig12046_at PATHOGENESIS RELATED PROTEIN-1
Protocol: as §1, §2, §3

[5] = system: Contig2209_at PATHOGENESIS RELATED PROTEIN (HV-1A)
Protocol: as §1, §2, §3

## O=[N+]([O-])/N=C1\NCCN1Cc1ccc(Cl)nc1 [imidacloprid]
[1]; 0.25 d
  Induction factor = Expression (treated)/Expression (untreated): 0.8
[1]; 0.25 days
  Median of the raw expression data, treated: 71.22
[1]; 1 d
  Induction factor = Expression (treated)/Expression (untreated): 0.7
[1]; 1 day
  Median of the raw expression data, treated: 70.44
[1]; 6 d
  Induction factor = Expression (treated)/Expression (untreated): 12.2
[1]; 6 days
  Median of the raw expression data, treated: 5432.88
[1]; 8 d
  Induction factor = Expression (treated)/Expression (untreated): 8.0
[1]; 8 days
  Median of the raw expression data, treated: 7952.61
[1]; 11 d
  Induction factor = Expression (treated)/Expression (untreated): 6.3
[1]; 11 days
  Median of the raw expression data, treated: 12190.31
[1]; 13 d
  Induction factor = Expression (treated)/Expression (untreated): 2.3
[1]; 13 days
  Median of the raw expression data, treated: 4800.62
[1]; 15 d
  Induction factor = Expression (treated)/Expression (untreated): 1.5
[1]; 15 days
  Median of the raw expression data, treated: 4880.14
[1]; 16 d
  Induction factor = Expression (treated)/Expression (untreated): 2.5
[1]; 16 days
  Median of the raw expression data, treated: 1836.52
[1]; 17 d
  Induction factor = Expression (treated)/Expression (untreated): 1.2
[1]; 17 days
  Median of the raw expression data, treated: 1166.53
[2]; 0.25 d
  Induction factor = Expression (treated)/Expression (untreated): 0.8
[2]; 0.25 days
  Median of the raw expression data, treated: 68.63
[2]; 1 d
  Induction factor = Expression (treated)/Expression (untreated): 0.7
[2]; 1 day
  Median of the raw expression data, treated: 54.66
[2]; 6 d
  Induction factor = Expression (treated)/Expression (untreated): 5.8
[2]; 6 days
  Median of the raw expression data, treated: 716.14
[2]; 8 d
  Induction factor = Expression (treated)/Expression (untreated): 7.4
[2]; 8 days
  Median of the raw expression data, treated: 1121.61
[2]; 11 d
  Induction factor = Expression (treated)/Expression (untreated): 6.1
[2]; 11 days
  Median of the raw expression data, treated: 771.21
[2]; 13 d
  Induction factor = Expression (treated)/Expression (untreated): 3.1
[2]; 13 days
  Median of the raw expression data, treated: 150.42
[2]; 15 d
  Induction factor = Expression (treated)/Expression (untreated): 1.4
[2]; 15 days
  Median of the raw expression data, treated: 162.60
[2]; 16 d
  Induction factor = Expression (treated)/Expression (untreated): 2.7
[2]; 16 days
  Median of the raw expression data, treated: 389.62
[2]; 17 d
  Induction factor = Expression (treated)/Expression (untreated): 0.9
[2]; 17 days
  Median of the raw expression data, treated: 174.42
[3]; 0.25 d
  Induction factor = Expression (treated)/Expression (untreated): 0.9
[3]; 0.25 days
  Median of the raw expression data, treated: 86.29
[3]; 1 d
  Induction factor = Expression (treated)/Expression (untreated): 0.5
[3]; 1 day
  Median of the raw expression data, treated: 44.68
[3]; 6 d
  Induction factor = Expression (treated)/Expression (untreated): 9.8
[3]; 6 days
  Median of the raw expression data, treated: 3322.93
[3]; 8 d
  Induction factor = Expression (treated)/Expression (untreated): 11.1
[3]; 8 days
  Median of the raw expression data, treated: 4807.28
[3]; 11 d
  Induction factor = Expression (treated)/Expression (untreated): 9.3
[3]; 11 days
  Median of the raw expression data, treated: 4463.75
[3]; 13 d
  Induction factor = Expression (treated)/Expression (untreated): 5.1
[3]; 13 days
  Median of the raw expression data, treated: 636.20
[3]; 15 d
  Induction factor = Expression (treated)/Expression (untreated): 3.0
[3]; 15 days
  Median of the raw expression data, treated: 808.24
[3]; 16 d
  Induction factor = Expression (treated)/Expression (untreated): 2.4
[3]; 16 days
  Median of the raw expression data, treated: 1241.52
[3]; 17 d
  Induction factor = Expression (treated)/Expression (untreated): 0.6
[3]; 17 days
  Median of the raw expression data, treated: 472.04
[4]; 0.25 d
  Induction factor = Expression (treated)/Expression (untreated): 0.9
[4]; 0.25 days
  Median of the raw expression data, treated: 76.89
[4]; 1 d
  Induction factor = Expression (treated)/Expression (untreated): 0.8
[4]; 1 day
  Median of the raw expression data, treated: 46.22
[4]; 6 d
  Induction factor = Expression (treated)/Expression (untreated): 6.5
[4]; 6 days
  Median of the raw expression data, treated: 786.00
[4]; 8 d
  Induction factor = Expression (treated)/Expression (untreated): 7.2
[4]; 8 days
  Median of the raw expression data, treated: 1336.13
[4]; 11 d
  Induction factor = Expression (treated)/Expression (untreated): 7.8
[4]; 11 days
  Median of the raw expression data, treated: 792.96
[4]; 13 d
  Induction factor = Expression (treated)/Expression (untreated): 2.7
[4]; 13 days
  Median of the raw expression data, treated: 140.26
[4]; 15 d
  Induction factor = Expression (treated)/Expression (untreated): 2.5
[4]; 15 days
  Median of the raw expression data, treated: 150.31
[4]; 16 d
  Induction factor = Expression (treated)/Expression (untreated): 2.9
[4]; 16 days
  Median of the raw expression data, treated: 622.77
[4]; 17 d
  Induction factor = Expression (treated)/Expression (untreated): 0.9
[4]; 17 days
  Median of the raw expression data, treated: 220.80
[5]; 0.25 d
  Induction factor = Expression (treated)/Expression (untreated): 0.8
[5]; 0.25 days
  Median of the raw expression data, treated: 187.60
[5]; 1 d
  Induction factor = Expression (treated)/Expression (untreated): 0.6
[5]; 1 day
  Median of the raw expression data, treated: 153.35
[5]; 6 d
  Induction factor = Expression (treated)/Expression (untreated): 9.8
[5]; 6 days
  Median of the raw expression data, treated: 4773.49
[5]; 8 d
  Induction factor = Expression (treated)/Expression (untreated): 11.5
[5]; 8 days
  Median of the raw expression data, treated: 8173.99
[5]; 11 d
  Induction factor = Expression (treated)/Expression (untreated): 12.1
[5]; 11 days
  Median of the raw expression data, treated: 8587.82
[5]; 13 d
  Induction factor = Expression (treated)/Expression (untreated): 6.0
[5]; 13 days
  Median of the raw expression data, treated: 1723.94
[5]; 15 d
  Induction factor = Expression (treated)/Expression (untreated): 2.7
[5]; 15 days
  Median of the raw expression data, treated: 1689.29
[5]; 16 d
  Induction factor = Expression (treated)/Expression (untreated): 2.5
[5]; 16 days
  Median of the raw expression data, treated: 2069.04
[5]; 17 d
  Induction factor = Expression (treated)/Expression (untreated): 0.6
[5]; 17 days
  Median of the raw expression data, treated: 888.58
